# The source made the active and inactive calls. No rule for the calls is given here.
# Molecular target: Bcl-2-related protein A1 (Homo sapiens) (UniProt Q16548)
# Test: inhibitors of Bim binding to Bfl-1, dose response, biochemical, multiplexed, bead-based flow cytometry (AID 1320); also: test concentration not given here
# Conditions: Bim peptide-Bfl-1 binding, fluorescence
# Bcl-2-related protein A1 (Homo sapiens), sequence (Q16548 whole entry, looked up): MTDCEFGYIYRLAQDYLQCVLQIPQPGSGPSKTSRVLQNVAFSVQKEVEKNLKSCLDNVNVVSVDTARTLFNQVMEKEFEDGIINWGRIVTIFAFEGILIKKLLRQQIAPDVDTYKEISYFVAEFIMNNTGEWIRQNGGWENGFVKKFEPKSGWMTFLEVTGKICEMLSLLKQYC
row,Structure (SMILES),percent span (inhibition)
1,O=C(C1CCC(Cn2c(=S)[nH]c3ccccc3c2=O)CC1)N1CCN(c2ccccn2)CC1 (configuration not stated),inactive
2,c1ccc(-c2nc(N3CCCCC3)nc3ccccc23)cc1,inactive
3,CC(C)CNC(=O)c1cccc(NC(=O)c2ccc(Cl)c([N+](=O)[O-])c2)c1,inactive
4,CCOc1cc(NC(=S)NC)c(OCC)cc1NC(=O)c1ccc(OC)cc1,inactive
5,O=C(CCCN1C(=O)c2cccc3cccc(c23)C1=O)N1CCN(c2ccccn2)CC1,inactive
6,COc1ccccc1Nc1nc(-c2c(C)nc3ncccn23)cs1,inactive
7,Cc1ccc(-c2n[nH]c(=S)n2-c2ccccc2)cc1,inactive
8,N#C/C(=C(/O)CN1CCN(c2ccccc2F)CC1)c1nc(-c2ccccc2)cs1,inactive
9,Cc1cc(NC(=O)CCCC(=O)N(CC(=O)NC2CCCCC2)c2ccccc2)no1,inactive
10,COc1cc(NC(=S)NC(=O)c2cc(C)cc(C)c2)ccc1NC(=O)c1cccs1,inactive
11,Cc1cccc(-n2c(O)c(/C=N/N3CCOCC3)c(=O)[nH]c2=S)c1,inactive
12,COc1cccc(N2CC(C(=O)Nc3nnc(SCC(=O)c4ccccc4)s3)CC2=O)c1 (configuration not stated),inactive
13,COc1ccc(NC(=O)/C(C#N)=C/c2c(C)nn(-c3ccc(F)cc3)c2Cl)cc1Cl,inactive
14,CCN(CC)c1nc(N)nc(N(c2ccccc2)c2ccccc2)n1,inactive
15,COc1ccc(S(=O)(=O)NCCOc2cccc3cccnc23)cc1OC,inactive
16,CCCCCCc1cc2cc(C(=O)Nc3ccccc3)c(=O)oc2cc1O,inactive
17,Clc1ccc(N=c2ssnc2Cl)nc1,inactive
18,Cc1cccc(/C=N/N(CCO)C2=NS(=O)(=O)c3ccccc32)c1,inactive
19,O=C(NCCc1ccccc1)c1ccc2nc(-c3ccco3)c(-c3ccco3)nc2c1,inactive
20,CC1=C2C(CCS2(=O)=O)CC2(C1)C(=O)OC(C)(C)OC2=O (configuration not stated),inactive
21,COC(=O)c1ccc(/C=N/NC(=O)CC(=O)NCc2cccnc2)cc1,inactive
22,COc1ccc(C2(NC(C)=O)CCN(C(=O)c3ccco3)CC2)cc1,inactive

row,Structure (SMILES),percent span (inhibition)
1,CCN1CCN(c2cc(C)c3cc(NC(=S)N4CCN(c5ccc(F)cc5)CC4)ccc3n2)CC1,inactive
2,COc1ccc(C(=S)N2CCCCCC2)cc1,inactive
3,CCOc1ccccc1/C=N/NC(=O)CNC(=O)COc1ccccc1,inactive
4,BrC(=C\c1ccccc1)/C=N/N1CCN(c2ccccc2)CC1,inactive
5,O=C1C=C(Nc2ccccc2)C(=O)c2ccccc21,inactive
6,COc1cccc(/C=N/NC(=O)c2cc3cc([N+](=O)[O-])ccc3s2)c1O,inactive
7,CC(CCc1ccccc1)NC(=O)C1CCN(S(=O)(=O)N2CCCCC2)CC1 (configuration not stated),inactive
8,O=C(O)CCN1C(=O)/C(=C\c2ccc(-c3nc4ccccc4s3)o2)SC1=S,inactive
9,Cc1ccccc1/C=N/Nc1ccnc2cc(Cl)ccc12,inactive
10,O=C1c2ccccc2C(=O)c2cc(S(=O)(=O)Nc3ccccc3)ccc21,inactive
11,Cc1cc(N2CCN(C)CC2)nc2ccc(NC(=S)N3CCCCC3)cc12,inactive
12,O=C(CSc1ccc2nnc(-c3ccncc3)n2n1)Nc1nccs1,inactive
13,COC(=O)c1ccc(-n2nnnc2SCC(=O)Nc2cc(OC)ccc2OC)cc1,inactive
14,Cn1c(N)c(C(=O)COC(=O)c2cc(-c3ccco3)nc3ccccc23)c(=O)n(C)c1=O,inactive
15,CCc1nn2cc(C(=O)c3cc(C)ccc3O)cnc2c1-c1ccc(F)cc1,inactive
16,Cc1ccc(S(=O)(=O)NC(=O)COc2ccccc2C)cc1,inactive
17,Cc1cc(Cl)c(S(=O)(=O)NCC2CCCO2)cc1OCC(N)=O (configuration not stated),inactive
18,c1cncc(-c2nnc3n2N=C(c2cccs2)CS3)c1,inactive
19,COc1ccc(C(=O)/C=C/c2cc(OC)c(O)c(OC)c2)c(F)c1,inactive
20,Cc1cccc(-c2nnc3n2N=C(c2ccccc2)CS3)c1,inactive
21,Cc1ccc2nc3c(cc(C(N)=S)c(=N)n3CCCOC(C)C)c(=O)n2c1,inactive
22,O=C1NCCN1C(=O)N(c1ccccc1)c1ccccc1,inactive

row,Structure (SMILES),percent span (inhibition)
1,Cc1cccc(N2CCN(C(=S)Nc3ccc4nc(N5CCN(C)CC5)cc(C)c4c3)CC2)c1C,inactive
2,C/C(=N\NC(=O)Cc1cccn1C)c1ccc2ccccc2c1,inactive
3,O=C(N/N=C/c1ccncc1)c1cccc(NC(=O)c2ccccc2Cl)c1,inactive
4,CCN1/C(=C/c2ccc3cc(C)ccc3[n+]2CC)Sc2cc(C)c(C)cc21,inactive
5,Cc1ccc(NC(=O)CC2S/C(=N/N=C/c3c[nH]c4ccccc34)NC2=O)cc1 (configuration not stated),inactive
6,O=C(CNC(=O)c1ccco1)NCC(=O)OCc1ccccc1Br,inactive
7,Cc1cc(N2CCN(C)CC2)nc2ccc(NC(=S)N3CCC4(CC3)OCCO4)cc12,inactive
8,Cc1ccc(N=C2NC(=O)/C(=C/C=C/c3ccco3)S2)cc1,inactive
9,COc1ccc(C(=O)NC(=S)N2CCNC(=O)C2)cc1Br,inactive
10,Cc1nc2ncccn2c1-c1csc(Nc2ccc(O)cc2)n1,inactive
11,Cc1ccc(NN2C(=O)C=CC2=O)cc1,inactive
12,COc1ccccc1Cn1nnc2c(=O)[nH]c(C3CCN(C(=O)c4ccc(C)cc4)CC3)nc21,inactive
13,CCCCC(C(=O)OCC)C(N)Cc1ccc(F)cc1 (configuration not stated),inactive
14,CN(/N=C/C=C/c1ccccc1)C1=NS(=O)(=O)c2ccccc21,inactive
15,CCOCCCn1c(N)c(C(=O)Nc2sc3c(c2C(=O)OC)CCCC3)c2nc3ccccc3nc21,inactive
16,CN(/N=C/c1cccnc1)C1=NS(=O)(=O)c2ccccc21,inactive
17,CCN1CCN(c2ccc(NC(=O)c3cccc4ncccc34)cc2)CC1,inactive
18,COc1cccc(/C=C2/SC(=O)N(C)C2=O)c1OCc1ccc(C(=O)O)cc1,inactive
19,NC(=O)c1c(NC(=O)C2CCCO2)sc2c1CCCCC2 (configuration not stated),inactive
20,O=C1C(=O)c2ccc(-c3ccccc3)cc2-c2ccccc21,inactive
21,O=c1nc2c(O)cccn2c2c1c(=O)[nH]c1ccccc12,inactive
22,C=CCn1c(SCC(=O)Nc2ccc3c(c2)OCO3)nnc1-c1cc(Br)ccc1O,inactive

row,Structure (SMILES),percent span (inhibition)
1,CCNC(=O)N1c2ccc(OCC)cc2C(C)=CC1(C)C,inactive
2,O=C(/C=C\c1ccc(-c2ccccc2)o1)c1ccccc1,inactive
3,Cc1ccc2c(c1)C1CN(C)CCC1N2C(=O)Nc1cccc(Cl)c1 (configuration not stated),inactive
4,S=C(Nc1ccccc1)N1CCn2cccc2C1c1cccnc1 (configuration not stated),inactive
5,COc1cc2[nH]c(=S)nc(NCC3CCCO3)c2cc1OC (configuration not stated),inactive
6,C1=CC2c3ccccc3NC(c3ccncc3)C2C1 (configuration not stated),inactive
7,Cc1ccc(NS(=O)(=O)c2cc(NC(=O)c3ccc4c(c3)NC(=O)CS4)ccc2C)c(C)c1,inactive
8,C/C(=N\NC(=O)COc1ccc(C#N)cc1)c1ccccc1OC(F)F,inactive
9,CCOc1ccc(CNc2ccc(N3CCCC3)cc2)cc1,inactive
10,O=C(NCc1ccccc1)C(=O)Nc1nc(C23CC4CC(CC(C4)C2)C3)cs1,inactive
11,CCCCCCn1nc(C(=O)Nc2nc3c(s2)CCCC3)c2ccccc2c1=O,inactive
12,COc1cc(C=Nc2cccc(C)c2)c(O)c([N+](=O)[O-])c1,inactive
13,CCc1cccc(CC)c1NC(=S)N1CCn2cccc2C1c1cccnc1 (configuration not stated),inactive
14,Cc1ccc(C2=N/C(=C/c3cccs3)C(=O)N2Nc2ccccc2)cc1,inactive
15,Cc1csc(Nc2ccccc2C(F)(F)F)n1,inactive
16,C/C(=N\NC(=O)Cn1nc(C)c([N+](=O)[O-])c1C)c1ccc(O)cc1,inactive
17,O=C(CSc1nnc(Cc2ccccc2)o1)NCc1ccco1,inactive
18,COc1cccc(/C=N/Nc2nn3cnnc3c3ccccc23)c1,inactive
19,N/C(=N\OC(=O)CCC1CCCC1)c1ccncc1,inactive
20,CCN(CC)c1ccc(NC(=O)COc2ccccc2C)cc1S(=O)(=O)Nc1ccccc1OC,inactive
21,Cc1ccc(-c2cc(-c3ccccc3)c(C#N)c(N)n2)o1,inactive

# Source: PubChem BioAssay AID1320 (NMMLSC, 2008)
